From patent US11535597B2, “Photoreactive ligands and uses thereof” (The Scripps Research Institute, priority 2017, dated 2022)

Tested on: proteins in HEK293T cells
Test: MS-based mapping of FFF probe-modified peptides (isoTOP, sites of labeling)
Format: binding, human
Outline: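 Live cells treated with fragment probes (200-250 μM) in serum-free DMEM, with or without competitor ligands. Proteomes clicked to light/heavy biotin-TEV-azide, streptavidin-enriched, trypsin- then TEV-digested; probe-modified peptides identified by LC-MS/MS with any residue allowed as modified site, isoTOP ratios quantified by CIMAGE.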

Q: What does the source list for C#CCCC1(CCC(=O)Nc2ccc(C3CCNCC3)cc2)N=N1 [probe 9, 3-(3-(But-3-yn-1-yl)-3H-diazirin-3-yl)-N-(4-(piperidin-4-yl)phenyl)propanamide]?
A: Labeled Peptide of HEXA Beta-hexosaminidase subuit alpha (Accession P06865, residues of probe-labeled peptide, family Enzymes): 489-499; Labeled Peptide of GAA Lysosomal alpha-glucosidase (Accession P10253, residues of probe-labeled peptide, family Enzymes): 855-870; Labeled Peptide of GLB1 Beta-galactosidase (Accession P16278, residues of probe-labeled peptide, family Enzymes): 286-299; Labeled Peptide (HEXA Beta-hexosaminidase subunit alpha, residues of probe-modified peptide): 489-499; Labeled Peptide (HSP90B1 Endoplasmin, residues of probe-modified peptide): 117-135; Labeled Peptide (LGALS3BP Galectin-3-binding protein (Q08380), residues of the probe-labeled peptide): 522-541; Labeled Peptide (MAN2B1 Lysosomal alpha-mannosidase (O00754), residues of the probe-labeled peptide): 614-638; Labeled Peptide (MAN2B2 Epididymis specific alpha-mannosidase (Q9Y2E5), residues of the probe-labeled peptide): 642-664; Labeled Peptide (NAGLU Alpha-N-acetylglucosaminidase (P54802), residues of the probe-labeled peptide): 566-580; Labeled Peptide (P4HB Protein disulfide-isomerase (P07237), residues of the probe-labeled peptide): 171-195; Labeled Peptide (P00338 LDHA L-lactate dehydrogenase A chain): 43-57; Labeled Peptide (P06865 HEXA Beta-hexosaminidase subunit alpha): 489-499; Labeled Peptide (P07339 CTSD Cathepsin D): 236-253; Labeled Peptide (P14625 HSP90B1 Endoplasmin): 117-135; Labeled Peptide (P16278 GLB1 Beta-galactosidase): 286-299; Labeled Peptide (residues) of SMYD3 SET and MYND domain-containing protein 3 (Q9H7B4, peptide DQYCLECDCFR, PDB 5HQ8): 255-265; Labeled Peptide (protein ATP1A1 (P05023), residues of probe-labeled peptide): 894-911; Labeled Peptide (protein C19orf6 Membralin (Q4ZIN3), residues of probe-labeled peptide): 254-271; Labeled Peptide (protein CCT6A T-complex protein 1 subunit zeta (P40227), residues of probe-labeled peptide): 400-424; Labeled Peptide (protein CLN5 Ceroid-lipofuscinosis neuronal protein 5 (O75503), residues of probe-labeled peptide): 74-96; Labeled Peptide (protein CPVL Probable serine carboxypeptidase CPVL (Q9H3G5), residues of probe-labeled peptide): 195-208; Labeled Peptide (protein CTSD Cathepsin D, residues of probe-labeled peptide): 236-253; Labeled Peptide (protein CTSD Cathespin D (P07339), residues of probe-labeled peptide): 236-253; Labeled Peptide (protein DNASE2 Deoxyribonuclease-2-alpha (O00115), residues of probe-labeled peptide): 173-202; Labeled Peptide (protein ECHDC1 Ethylmalonyl-CoA decarboxylase (Q9NTX5), residues of probe-labeled peptide): 272-283; Labeled Peptide (protein EIF4H Eukaryotic translation initiation factor 4H (Q15056), residues of probe-labeled peptide): 97-109; Labeled Peptide (protein FARSB Phenylalanine--tRNA ligase beta subunit, residues of probe-labeled peptide): 72-82; Labeled Peptide (protein FARSB Phenylalanini--tRNA ligase beta subunit (Q9NSD9), residues of probe-labeled peptide): 72-82; Labeled Peptide (protein GLB1 Beta-galactosidase, residues of probe-labeled peptide): 286-299; Labeled Peptide (protein LDHA L-lactate dehydrogenase A chain, residues of the probe-labeled peptide): 43-57; Labeled Peptide (protein NAGLU Alpha-N-acetylglucosaminidase, residues of the probe-labeled peptide): 566-580; Labeled Peptide (protein P4HB Protein disulfide-isomerase, residues of the probe-labeled peptide): 171-195; Labeled Peptide (protein P46977 STT3A Dolichyl-diphosphooligosaccharide--protein glycosy): 572-595; Labeled Peptide (protein PCYOX1 Prenylcysteine oxidase 1 (Q9UHG3)): 292-304; Labeled Peptide (protein PDIA4 Protein disulfide-isomerase A4 (P13667)): 486-499; Labeled Peptide (protein PHB Prohibitin (P35232)): 220-239; Labeled Peptide (protein Q8IXU6 SLC35F2 Solute carrier family 35 member F2): 188-221; Labeled Peptide (protein Q8TCJ2 STT3B Dolichyl-diphosphooligosaccharide--protein glycosy): 651-674; Labeled Peptide (protein Q9BVK6 TMED9 Transmembrane emp24 domain-containg protein 9): 49-65; Labeled Peptide (protein Q9H7B4 SMYD3 SET and MYND domain-containing protein 3): 255-265; Labeled Peptide (protein Q92973 TNPO1 Transportin-1): 273-298; Labeled Peptide (protein RALA Ras-related protein Ral-A (P11233)): 28-47; Labeled Peptide (protein SMYD3 SET and MYND domain-containing protein 3, residues of the probe-modified peptide): 255-265; Labeled Peptide (protein TNPO1 Transportin-1, residues of the probe-modified peptide): 273-298
